Consider 54 molecules from patent publication US20240246941A1, “SUBSTITUTED 4-(3-AMINOPROP-1-YL)AMINOQUINOLINE ANALOGS AS MODULATORS OF MELANOMA-ASSOCIATED ANTIGEN 11 UBIQUITIN LIGASE” (ST. JUDE CHILDREN'S RESEARCH HOSPITAL, INC., priority 2020, published 2024).

MAGE-A11:PCF11, sequence (P43364 218-429): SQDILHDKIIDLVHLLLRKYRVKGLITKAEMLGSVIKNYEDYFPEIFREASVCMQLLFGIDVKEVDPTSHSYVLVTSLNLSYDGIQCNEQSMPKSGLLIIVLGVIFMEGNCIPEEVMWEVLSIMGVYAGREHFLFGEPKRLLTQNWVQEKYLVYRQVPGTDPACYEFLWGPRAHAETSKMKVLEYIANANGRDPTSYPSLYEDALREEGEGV

The first test addresses MAGE-A11:PCF11 (Homo sapiens (Human), UniProt P43364). As to the kind of experiment: TR-FRET single point screening at 15 μM. Also on record: unit not given here. The format is binding. The following applies: single point TR-FRET screening at 15 μM against MAGE-A11:PCF11. The text has this:
TR-FRET Assays and High-throughput Screen. Terbium-anti-GST antibody, 1 M Tris pH 7.5 1 M MgCl2 and 1 M DTT were purchased from Invitrogen (Carlsbad, CA), BSA was purchased from Sigma (St. Louis, MO). Dimethyl sulfoxide (DMSO) was purchased from Fisher Scientific (Pittsburgh, PA). Black 384-well low volume plates and 384-well polypropylene compound plates were purchased from Corning Incorporated (Tewksbury, MA). The St. Jude FDA drug and Bioactive library (11,293 chemicals), Drug-like library (10,073 chemicals) and Lead-like library (10,041 chemicals) were custom assembled and purchased from commercial sources including Sigma, Microsource (Gaylordsville, CT), selleckchem (Houston, TX), ChemDiv (San Diego, CA), ChemBridge (San Diego, CA), Enamine (Monmouth Jct., NJ), and Life Chemicals (Niagara-on-the-Lake, ON, Canada). They were arrayed (10 mM in DMSO) in 384-well polypropylene compound plates with columns 1, 2, 13 and 14 empty which were reserved for controls.
The TR-FRET assay buffer with a formula of 50 mM Tris pH 7.5, 20 mM MgCl2, 0.1 mg/ml BSA and 1 mM DTT was freshly prepared before each experiment. All TR-FRET assays were performed in black 384-well plates with 20 μl/well assay volume in the TR-FRET assay buffer at room temperature (approximately 25° C.). All peptides or compounds were solubilized in DMSO. To test the competitive activity of peptides or compounds against the interaction between GST-MAGEA11 MHD and FAM-PCF11_4 peptide, 10 μl/well peptide or compound at specified concentration was dispensed into a black 384-well low volume plate, followed by 5 μl/well FAM-PCF11_4 (800 nM), 5 μl/well Tb-anti-GST (20 nM) and GST-MAGEA11 MHD (20 nM). The assay components in each well was then mixed by shaking the plate on an IKA MTS 2/4 digital microtiter plate shaker (IKA Works; Wilmington, NC, USA) at 900 RPM for 1 minute. The plate was further centrifuged in an Eppendorf 5810 centrifuge with an A-4-62 swing-bucket rotor (Eppendorf AG, Hamburg, Germany) at 201 g (1000 rpm) for 30 seconds. The plate was then incubated for 90 min with a lid to avoid light exposure to the assay components. After incubation, the fluorescent emission signals at 520 nm and 490 nm channels of individual wells were measured with a PHERAstar FS plate reader (BMG Labtech; Durham, NC, USA) by using a 340 nm excitation filter, 100 μs delay time, and 200 μs integration time. The TR-FRET fluorescence emission ratio (TR-FRET signal) for each well was presented as 10 000×520 nm/490 nm, which was used directly for curve fitting, or further converted to % Inhibition based on the respective positive and negative controls. The graphic software GraphPad Prism 4.81 (GraphPad Software; La Jolla, CA, USA) was used to generate curves and derive IC50 values of tested peptides or compounds, if applicable.
TR-FRET screen for identifying MAGEA11 small molecule inhibitors was performed as follows. The primary one-concentration screening and subsequent 10 or 20-concentration dose response tests were accomplished with an automated High Throughput Screening system (HighRes Biosolutions, Beverly, MA)^30. In the primary screening, 15 μl/well FAM-PCF11_4 (267 nM) was first dispensed with a Multidrop Combi Reagent Dispenser (Thermo Fisher Scientific, Waltham, MA) to black 384-well low volume assay plates. The plates were spun down with a Velocity11 VSpin microplate centrifuge (Agilent Technologies, Santa Clara, CA). 30 nl/well of 10 mM compound/DMSO solutions, or DMSO alone, were transferred from compound plates (the St. Jude FDA drug and bioactive library, Drug-like library and Lead-like library) or a control plate to the assay plates with a Pin Tool (V&P Scientific, San Diego, CA). The compounds were arrayed in columns 3 to 12 and columns 15 to 24 of compound plates. The controls were arrayed in columns 1, 2, 13 and 14 of a compound plate. […]
Background: TR-FRET usually uses a lanthanide donor and a delayed reading to cut background.
`CC(C)CN(CCCCNc1ccnc2cc(Cl)ccc12)Cc1ccccc1` [SJ000357470] had a TR-FRET signal of 25.47.
As for `CN1CCN(c2c(C(=O)c3ccccc3)cnc3ccc(Cl)cc23)CC1` [SJ000247338], the TR-FRET signal was −5.573.
In turn, `O=C(CN1CCN(C(c2ccccc2)c2ccccc2)CC1)Nc1c2c(nc3ccccc13)CCC2` [SJ000111684] showed a TR-FRET signal of 11.85.
The same measure, in the same setting: for `O=S(=O)(c1ccccc1)c1cnc2ccc(Cl)cc2c1N1CCN(Cc2ccccc2)CC1` [SJ000247242] the value was −30.28; for `CCCN(CCCNc1c2ccc(Cl)cc2nc2ccc(OC)cc12)Cc1cccc(C#N)c1` [SJ000522739], −94.54; for `COc1ccc2nc3cc(Cl)ccc3c(NCCCNCc3cccc(F)c3)c2c1` [SJ000521004], −366.2.
In the case of `CCOC(=O)c1cnc2c(C)cc(C)cc2c1NCCN(C)C` [SJ000037396], the TR-FRET signal came to 4.92.
As for `COc1ccc2ncc(S(=O)(=O)c3ccc(C)c(C)c3)c(N3CCN(c4ccccc4F)CC3)c2c1` [SJ000117078], the TR-FRET signal was −8.289.
The same measure, in the same setting: next, `CCOC(=O)c1cnc2ccc(OCC)cc2c1N1CCN(C)CC1` [SJ000279526]: −7.064.
The same measure, in the same setting: next, `CCOC(=O)c1cnc2ccc(OCC)cc2c1NCCN(C)C` [SJ000027288]: 10.66.
Molecule `COc1ccccc1N1CCN(c2c(S(=O)(=O)c3ccc(C)cc3)cnc3ccc(Cl)cc23)CC1` [SJ000117067] displayed a TR-FRET signal of −12.86.
`CCCN(CCCNc1c2ccc(Cl)cc2nc2ccc(OC)cc12)Cc1ccccc1[N+](=O)[O-]` [SJ000520947] displayed a TR-FRET signal of −228.3.
On to `Cc1ccc(S(=O)(=O)c2cnc3ccccc3c2N2CCN(c3cc(C)ccc3C)CC2)cc1` [SJ000117084], for which the TR-FRET signal was determined as 2.443.
`Oc1ccccc1CN(CCCCNc1ccnc2cc(Cl)ccc12)Cc1ccccc1` [SJ000312697] displayed a TR-FRET signal of 24.83.
The same measure, in the same setting: next, `COc1ccc2nc3cc(Cl)ccc3c(NCCCNCc3ccccc3)c2c1` [SJ000361086]: −432.4; `COc1ccc2nc3cc(Cl)ccc3c(NCCCNCc3cn(C)c4ccccc34)c2c1` [SJ000520987]: −252.4.
In turn, `CCCNCCCNc1c2ccc(Cl)cc2nc2ccc(OC)cc12` [SJ000361096] showed a TR-FRET signal of −498.5.
The same measure, in the same setting: next, `CCOC(=O)c1cnc2c(ccc3ccccc32)c1NCCN(C)C` [SJ000019487]: 6.418.
Consider `CCOC(=O)c1cnc2c(C(=O)OC)cccc2c1NCCN1CCOCC1` [SJ000184799], for which the TR-FRET signal is reported as 4.043.
Still for that read-out and setting: next, `COc1ccc2ncc(S(=O)(=O)c3ccc(C)cc3)c(N3CCN(c4ccccc4F)CC3)c2c1` [SJ000117076]: 6.02.
Same read-out and setting: for `CCCN(CCCNc1c2ccc(Cl)cc2nc2ccc(OC)cc12)Cc1ccsc1` [SJ000520922] the value was −258; for `Cc1cc(N2CCN(CC(O)CO)CC2)c2ccccc2n1` (stereo not drawn) [SJ000227653], −4.954.
The same measure, in the same setting: next, `CCOc1ccc2ncc(S(=O)(=O)c3ccc(C)c(C)c3)c(N3CCN(C)CC3)c2c1` [SJ000247354]: −14.05; `Clc1ccc2c(NCCCCN(Cc3ccccc3)Cc3ccsc3)ccnc2c1` [SJ000312689]: 16.3; `O=S(=O)(c1ccc(Cl)cc1)N1CCN(c2ccnc3cc(Cl)ccc23)CC1` [SJ000204656]: −34.39.
`Cc1cc(C)c(CN2CCC(Nc3ccnc4cc(Cl)ccc34)CC2)c(C)c1` [SJ000523084]: the TR-FRET signal was 11.75.
`COc1ccc2nc3cc(Cl)ccc3c(NCCCNCc3ccsc3)c2c1` [SJ000523026] had a TR-FRET signal of −353.8.

The same test, now with this note: single point TR-FRET screening of quinoline compounds against MAGE-A11:PCF11; 15 μM.
For the molecule `CCCN(CCCNc1ccnc2cc(C(F)(F)F)ccc12)Cc1ccncc1` [SJ000361251], the TR-FRET signal came out at 17.49.
On to `CCCN(CCCNc1ccnc2cc(C(F)(F)F)ccc12)Cc1ccc2c(c1)OCO2` [SJ000361270], for which the TR-FRET signal worked out at 5.623.
In the case of `CCCN(CCCNc1ccnc2cc(Cl)ccc12)Cc1ccc(C)s1` [SJ000357433], the TR-FRET signal is recorded as 16.51.
Still for that read-out and setting: next, `CCCN(CCCNc1ccnc2cc(Cl)ccc12)Cc1scnc1C` [SJ000523005]: 11.85; `CCCN(CCCNc1ccnc2cc(Cl)ccc12)Cc1nc(C)cs1` [SJ000522997]: 3.413; `CCCN(CCCNc1c2ccc(Cl)cc2nc2ccc(OC)cc12)Cc1c(F)c(F)c(F)c(F)c1F` [SJ000522734]: −2.258.
Same read-out and setting: next, `CCCN(CCCNc1ccnc2cc(Cl)ccc12)Cc1c(C)cc(C)cc1C` [SJ000522749]: 35.43.
Turning to `CCCN(CCCNc1ccnc2cc(C(F)(F)F)ccc12)Cc1c(F)cccc1OC` [SJ000361262], the TR-FRET signal was determined as 29.23.
Same read-out and setting: for `FC(F)(F)c1ccc2c(NCCCNCc3cc4ccccc4o3)ccnc2c1` [SJ000521057] the value was 27.48; for `CCOC(=O)c1ccc2ncc(C(=O)OCC)c(NCCCN3CCOCC3)c2c1` [SJ000176583], 11.26.
On the same count and under the same terms, next, `CC(C)(C)c1ccc(-c2ccc3c(NCCCNCc4ccco4)ccnc3c2)cc1` [SJ000311286]: 73.5; `CCCN(CCCNc1ccnc2cc(Cl)ccc12)Cc1ccc(C(=O)OC)cc1` [SJ000523042]: 16.72.
As to `Fc1ccc(-c2ccc3c(NCCCNCc4ccco4)ccnc3c2)cc1` [SJ000311238], the TR-FRET signal was determined as 27.43.
`Cn1cc(CNCCCNc2ccnc3cc(Cl)ccc23)c2ccccc21` [SJ000521020]: the TR-FRET signal came to 18.47.
On the same count and under the same terms, for `CCCN(CCCNc1ccnc2cc(Cl)ccc12)Cc1ccc(OC(F)(F)F)cc1` [SJ000522999] the value was 22.74; for `CCCN(CCCNc1ccnc2cc(C(F)(F)F)ccc12)Cc1cn(C)c2ccccc12` [SJ000520469], 25.54; for `Cc1ccc(C)c(CN(CCCNc2ccnc3cc(Cl)ccc23)Cc2ccccc2)c1` [SJ000361187], 20.22.
On the same count and under the same terms, next, `CCCN(CCCNc1ccnc2cc(C(F)(F)F)ccc12)Cc1cc(C)ccc1C` [SJ000523082]: 21.74.
Same read-out and setting: for `Clc1ccc2c(NCCCN(Cc3ccccc3)CC3CCCCC3)ccnc2c1` [SJ000361171] the value was 28.21; for `Clc1ccc2c(NCCCN(Cc3ccccc3)Cc3csc4ccccc34)ccnc2c1` [SJ000520454], 28.14; for `COc1cc(Cc2ccc3c(NCCCNCc4ccco4)ccnc3c2)cc(OC)c1` [SJ000311310], 23.79.
The molecule `Cc1ccc(CNCCCNc2ccnc3cc(Cl)ccc23)o1` [SJ000311326] returned a TR-FRET signal of 10.2.
As to `CCCN(CCCNc1ccnc2cc(C(F)(F)F)ccc12)CC1CCCCC1` [SJ000361268], the TR-FRET signal is on record as 33.31.
Molecule `CCCN(CCCNc1ccnc2cc(Cl)ccc12)Cc1ccc2ccccc2c1` [SJ000523040] came in with a TR-FRET signal of 32.85.
In the case of `CSC(C)CCNCCCNc1ccnc2cc(C(F)(F)F)ccc12` (stereo not drawn) [SJ000361125], the TR-FRET signal worked out at 24.46.
Same read-out and setting: for `Clc1ccc2c(NCCCN(Cc3ccccc3)Cc3cc4ccccc4o3)ccnc2c1` [SJ000520461] the value was 5.6; for `COc1ccc2nc3cc(Cl)ccc3c(NCCCNCc3ccccc3N)c2c1` [SJ000523031], −57.15.
